Type in all cases: cell-based
Assay [1] deals with Aspergillus flavus. In words: MIC, YAG medium, Aspergillus flavus. The conditions noted are these: Aspergillus flavus, YAG medium. In short, it runs like this: (§1)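 Doubling dilutions (50-0.05 mg/L) were tested against Candida in RPMI with 2% glucose and 0.135M MOPS, pH7.0, at 1-2×10^3 cfu/ml for 24-48 hrs, 35° C; MIC is >80% inhibition at OD485. Aspergillus in YAG medium at 1-2×10^4 cfu/ml for 24 hrs was scored at >70% inhibition; low MICs were retested over 0.5-0.0005 mg/L.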

For assay [2], the system named is Aspergillus fumigatus AF210. In words: MIC, YAG medium, Aspergillus fumigatus AF210. The conditions noted are these: Aspergillus fumigatus, AF210; YAG medium; read-out: MIC A Fum. 210. In short, it runs like this:
as §1

Assay [3] relates to Aspergillus niger. In words: MIC, YAG medium, Aspergillus niger. The conditions noted are these: Aspergillus niger, YAG medium. In short, it runs like this:
as §1

In assay [4] the test system is Aspergillus fumigatus AF293. In words: MIC, YAG medium, Aspergillus fumigatus AF293. The conditions noted are these: Aspergillus fumigatus, AF293; YAG medium; read-out: MIC A Fum. 293. The gist of the method: as §1
In assay [5] the test system is Aspergillus terreus. In words: MIC, YAG medium, Aspergillus terreus. Conditions: Aspergillus terreus, YAG medium. The gist of the method: as §1

≈ marks a conversion by molar mass, not a printed value. Where two headings read alike, the source gives them in different places.

With `COc1ccc(NC(=O)C(=O)c2c(-c3ccccc3)cc3ccc(C)cn23)cn1` [Example 192, N-(6-Methoxy-pyridin-3-yl)-2-(6-methyl-2-phenyl-indolizin-3-yl)-2-oxo-acetamide], the MIC in assay [1] (read-out: MIC A Flavus 01) came out at 0.4 µg/mL (≈ 1.04 µM); in assay [2], 1.6 µg/mL (≈ 4.15 µM); in assay [3] (read-out: MIC A Niger 1), 0.8 µg/mL (≈ 2.08 µM); in assay [4], 1.6 µg/mL (≈ 4.15 µM); in assay [5] (read-out: MIC A Terreus 4), 0.4 µg/mL (≈ 1.04 µM).
As to `COc1ccc(NC(=O)C(=O)c2c(-c3ccco3)cc3ccccn23)cc1` [Example 164, 2-(2-Furan-2-yl-indolizin-3-yl)-N-(4-methoxy-phenyl)-2-oxo-acetamide], the MIC in assay [1] (read-out: MIC A Flavus 01) was 0.4 µg/mL (≈ 1.11 µM); in assay [2] it was above 50 µg/mL; in assay [3] (read-out: MIC A Niger 1), 0.4 µg/mL (≈ 1.11 µM); in assay [4] it was above 50 µg/mL; in assay [5] (read-out: MIC A Terreus 4), above 50 µg/mL.
Take `CC(=O)c1ccc(NC(=O)C(=O)c2c(-c3cccnc3)cc3ccccn23)cc1` [Example 217, N-(4-Acetyl-phenyl)-2-oxo-2-(2-pyridin-3-yl-indolizin-3-yl)-acetamide]: the MIC in assay [1] (read-out: MIC A Flavus 01) is 0.8 µg/mL (≈ 2.09 µM); in assay [2] it was above 50 µg/mL; in assay [3] (read-out: MIC A Niger 1), above 50 µg/mL; in assay [4] it was above 50 µg/mL; in assay [5] (read-out: MIC A Terreus 4), 3.1 µg/mL (≈ 8.09 µM).
On to `CC(C)(C#N)c1cccc(NC(=O)C(=O)c2c(-c3cccnc3)cc3ccccn23)c1` [Example 231, N-[3-(Cyano-dimethyl-methyl)-phenyl]-2-oxo-2-(2-pyridin-3-yl-indolizin-3-yl)-acetamide], for which the MIC in assay [1] (read-out: MIC A Flavus 01) was 0.05 µg/mL (≈ 0.122 µM); in assay [2], 0.8 µg/mL (≈ 1.96 µM); in assay [3] (read-out: MIC A Niger 1), 0.8 µg/mL (≈ 1.96 µM); in assay [4], 1.6 µg/mL (≈ 3.92 µM); in assay [5] (read-out: MIC A Terreus 4), 0.1 µg/mL (≈ 0.245 µM).
On to `COc1ccc(NC(=O)C(=O)c2c(-c3ccccc3)cc3c(C)cccn23)cc1` [Example 234, N-(4-Methoxy-phenyl)-2-(8-methyl-2-phenyl-indolizin-3-yl)-2-oxo-acetamide], for which the minimum inhibitory concentration (MIC) was above 50 µg/mL in assay [1] (read-out: MIC A Flavus 01); above 50 µg/mL in assay [2]; above 50 µg/mL in assay [3] (read-out: MIC A Niger 1); above 50 µg/mL in assay [4]; 1.6 µg/mL (≈ 4.16 µM) in assay [5] (read-out: MIC A Terreus 4).
In the case of `O=C(NC1CCCCC1)C(=O)c1c(-c2ccccc2)cc2ccccn12` [Example 178, N-Cyclohexyl-2-oxo-2-(2-phenyl-indolizin-3-yl)-acetamide], the minimal inhibitory concentration (MIC) was found to be 1.6 µg/mL (≈ 4.62 µM) in assay [1] (read-out: MIC A Flavus 01); 0.8 µg/mL (≈ 2.31 µM) in assay [2]; 0.2 µg/mL (≈ 0.577 µM) in assay [3] (read-out: MIC A Niger 1); 0.8 µg/mL (≈ 2.31 µM) in assay [4]; 0.1 µg/mL (≈ 0.289 µM) in assay [5] (read-out: MIC A Terreus 4).
Consider `Cc1ccc(NC(=O)C(=O)c2c(-c3ccccc3)cc3ccc(C)cn23)cc1` [Example 190, 2-(6-Methyl-2-phenyl-indolizin-3-yl)-2-oxo-N-p-tolyl-acetamide], for which the MIC in assay [1] (read-out: MIC A Flavus 01) came out at 0.4 µg/mL (≈ 1.09 µM); in assay [2] it was 1.6 µg/mL (≈ 4.34 µM); in assay [3] (read-out: MIC A Niger 1), 0.4 µg/mL (≈ 1.09 µM); in assay [4], 1.6 µg/mL (≈ 4.34 µM); in assay [5] (read-out: MIC A Terreus 4) it was 0.1 µg/mL (≈ 0.271 µM).
Turning to `O=C(Nc1cccnc1)C(=O)c1c(-c2ccccc2)cc2ccccn12` [Example 152, 2-Oxo-2-(2-phenyl-indolizin-3-yl)-N-pyridin-3-yl-acetamide], the minimal inhibitory concentration (MIC) in assay [1] (read-out: MIC A Flavus 01) is 1.6 µg/mL (≈ 4.69 µM); in assay [2], 25 µg/mL (≈ 73.2 µM); in assay [3] (read-out: MIC A Niger 1), 0.4 µg/mL (≈ 1.17 µM); in assay [4], 12.5 µg/mL (≈ 36.6 µM); in assay [5] (read-out: MIC A Terreus 4), 0.8 µg/mL (≈ 2.34 µM).
Take `O=C(Nc1ccc(Cl)cc1Cl)C(=O)c1c(-c2cccnc2)cc2ccccn12` [Example 224, N-(2,4-Dichloro-phenyl)-2-oxo-2-(2-pyridin-3-yl-indolizin-3-yl)-acetamide]: the MIC in assay [1] (read-out: MIC A Flavus 01) amounted to 0.05 µg/mL (≈ 0.122 µM); in assay [2], 6.25 µg/mL (≈ 15.2 µM); in assay [3] (read-out: MIC A Niger 1), 0.2 µg/mL (≈ 0.487 µM); in assay [4] it was 6.25 µg/mL (≈ 15.2 µM); in assay [5] (read-out: MIC A Terreus 4) it was 0.1 µg/mL (≈ 0.244 µM).
`Cc1ccc(NC(=O)C(=O)c2c(-c3ccncc3)cc3ccccn23)cc1` [Example 171, 2-Oxo-2-(2-pyridin-4-yl-indolizin-3-yl)-N-p-tolyl-acetamide]: the minimum inhibitory concentration (MIC) is 0.4 µg/mL (≈ 1.13 µM) in assay [1] (read-out: MIC A Flavus 01); 1.6 µg/mL (≈ 4.5 µM) in assay [2]; above 50 µg/mL in assay [3] (read-out: MIC A Niger 1); 50 µg/mL (≈ 141 µM) in assay [4]; 0.8 µg/mL (≈ 2.25 µM) in assay [5] (read-out: MIC A Terreus 4).
On the same counts, the results for `COc1cc(NC(=O)C(=O)c2c(-c3ccccc3)cc3ccccn23)cc(OC)c1OC` [Example 222, 2-Oxo-2-(2-phenyl-indolizin-3-yl)-N-(3,4,5-trimethoxy-phenyl)-acetamide] are 0.05 µg/mL (≈ 0.116 µM), 1.6 µg/mL (≈ 3.72 µM), 3.1 µg/mL (≈ 7.2 µM), 1.6 µg/mL (≈ 3.72 µM) and 0.4 µg/mL (≈ 0.929 µM).
Regarding `CN(C)C(=O)C(=O)c1c(-c2ccccc2)cc2ccccn12` [Example 183, N,N-Dimethyl-2-oxo-2-(2-phenyl-indolizin-3-yl)-acetamide], the MIC in assay [1] (read-out: MIC A Flavus 01) was above 50 µg/mL; in assay [2], 25 µg/mL (≈ 85.5 µM); in assay [3] (read-out: MIC A Niger 1), above 50 µg/mL; in assay [4] it was above 50 µg/mL; in assay [5] (read-out: MIC A Terreus 4), 12.5 µg/mL (≈ 42.8 µM).
On to `CCOC(=O)c1ccccc1NC(=O)C(=O)c1c(-c2ccccc2)cc2ccccn12` [Example 208, 2-[2-Oxo-2-(2-phenyl-indolizin-3-yl)-acetylamino]-benzoic acid ethyl ester], for which the minimal inhibitory concentration (MIC) was above 50 µg/mL in assay [1] (read-out: MIC A Flavus 01); above 50 µg/mL in assay [2]; above 50 µg/mL in assay [3] (read-out: MIC A Niger 1); above 50 µg/mL in assay [4]; 12.5 µg/mL (≈ 30.3 µM) in assay [5] (read-out: MIC A Terreus 4).
Regarding `CCN(C(=O)C(=O)c1c(-c2ccccc2)cc2ccccn12)c1ccccc1` [Example 302, N-Ethyl-2-oxo-N-phenyl-2-(2-phenyl-indolizin-3-yl)-acetamide], the minimal inhibitory concentration (MIC) in assay [1] (read-out: MIC A Flavus) was above 50 µg/mL; in assay [2] it was 25 µg/mL (≈ 67.9 µM); in assay [3] (read-out: MIC A Niger), above 50 µg/mL; in assay [4], 50 µg/mL (≈ 136 µM); in assay [5] (read-out: MIC A Terreus), 25 µg/mL (≈ 67.9 µM).
In the case of `Cc1ccc(NC(=O)C(=O)c2c(-c3ccccc3)cc3cc(C)ccn23)cc1` [Example 191, 2-(7-Methyl-2-phenyl-indolizin-3-yl)-2-oxo-N-p-tolyl-acetamide], the MIC came to 0.8 µg/mL (≈ 2.17 µM) in assay [1] (read-out: MIC A Flavus 01); 3.1 µg/mL (≈ 8.41 µM) in assay [2]; 1.6 µg/mL (≈ 4.34 µM) in assay [3] (read-out: MIC A Niger 1); 3.1 µg/mL (≈ 8.41 µM) in assay [4]; 0.2 µg/mL (≈ 0.543 µM) in assay [5] (read-out: MIC A Terreus 4).
For the compound `Cc1ccc(NC(=O)C(=O)c2c(-c3ccccn3)cc3ccccn23)cc1` [Example 175, 2-Oxo-2-(2-pyridin-2-yl-indolizin-3-yl)-N-p-tolyl-acetamide], the minimum inhibitory concentration (MIC) in assay [1] (read-out: MIC A Flavus 01) is above 50 µg/mL; in assay [2], 3.1 µg/mL (≈ 8.72 µM); in assay [3] (read-out: MIC A Niger 1), above 50 µg/mL; in assay [4], above 50 µg/mL; in assay [5] (read-out: MIC A Terreus 4) it was 3.1 µg/mL (≈ 8.72 µM).
Take `O=C(Nc1ccccc1Cl)C(=O)c1c(-c2cccnc2)cc2ccccn12` [Example 216, N-(2-Chloro-phenyl)-2-oxo-2-(2-pyridin-3-yl-indolizin-3-yl)-acetamide]: the minimum inhibitory concentration (MIC) in assay [1] (read-out: MIC A Flavus 01) stood at 0.2 µg/mL (≈ 0.532 µM); in assay [2], 6.25 µg/mL (≈ 16.6 µM); in assay [3] (read-out: MIC A Niger 1), 0.4 µg/mL (≈ 1.06 µM); in assay [4], 6.25 µg/mL (≈ 16.6 µM); in assay [5] (read-out: MIC A Terreus 4), 0.2 µg/mL (≈ 0.532 µM).
Take `COC(=O)c1ccccc1NC(=O)C(=O)c1c(-c2ccccc2)cc2ccccn12` [Example 142, 2-[2-Oxo-2-(2-phenyl-indolizin-3-yl)-acetylamino]-benzoic acid methyl ester]: the MIC in assay [1] (read-out: MIC A Flavus 01) was above 50 µg/mL; in assay [2], above 50 µg/mL; in assay [3] (read-out: MIC A Niger 1), 0.8 µg/mL (≈ 2.01 µM); in assay [4], above 50 µg/mL; in assay [5] (read-out: MIC A Terreus 4), above 50 µg/mL.
As for `COc1ccc(NC(=O)C(=O)c2c(-c3ccccc3)cc3cc(C)ccn23)cn1` [Example 193, N-(6-Methoxy-pyridin-3-yl)-2-(7-methyl-2-phenyl-indolizin-3-yl)-2-oxo-acetamide], the MIC in assay [1] (read-out: MIC A Flavus 01) is 6.25 µg/mL (≈ 16.2 µM); in assay [2] it was above 50 µg/mL; in assay [3] (read-out: MIC A Niger 1), above 50 µg/mL; in assay [4], above 50 µg/mL; in assay [5] (read-out: MIC A Terreus 4), 0.8 µg/mL (≈ 2.08 µM).

For orientation: MIC means the lowest concentration found to suppress growth.

These data come from patent publication US8486962B2, “Antifungal agents” (F2G Ltd., priority 2005, dated 2013).
